Experimental data as given in PubChem BioAssay AID330 (DTP/NCI, 2004).
Several values for one entry are separate records, joined by “and”; a condition that tells them apart may be missing. Equal entries are not always repeated. Toxic doses and inconclusive results are not listed. How the source made its calls: active means survival T/C of 150% or more; inactive means T/C below 125% in these data.

Tested on: P388 leukemia ip, CD2F1 mice, survival T/C
Assay: NCI In Vivo Anticancer Drug Screen. Data for tumor model P388 Leukemia (intraperitoneal) in CD2F1 (CDF1) mice
Conditions: endpoint: median survival time, higher = longer survival
In short: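 Mice carrying the transplanted tumor received test compound or vehicle. Survival was recorded in each group, and the value is the treated-group measurement divided by that of the vehicle-treated control group.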

[1] = dose: 50.0 mg/kg/injection, schedule: Q01DX009 (ip), vehicle: Klucel (hydroxypropylcellulose) (HPC)
[2] = dose: 100.0 mg/kg/injection, schedule: Q01DX009 (ip), vehicle: Klucel (hydroxypropylcellulose) (HPC)
[3] = dose: 50.0 mg/kg/injection, schedule: Q01DX009 (ip), vehicle: saline
[4] = dose: 100.0 mg/kg/injection, schedule: Q01DX009 (ip), vehicle: saline
[5] = dose: 200.0 mg/kg/injection, schedule: Q01DX009 (ip), vehicle: saline
[6] = dose: 50.0 mg/kg/injection, schedule: Q01DX009 (ip), vehicle: saline with Tween-80
[7] = dose: 100.0 mg/kg/injection, schedule: Q01DX009 (ip), vehicle: saline with Tween-80
[8] = dose: 200.0 mg/kg/injection, schedule: Q01DX009 (ip), vehicle: saline with Tween-80
[9] = dose: 200.0 mg/kg/injection, schedule: Q01DX009 (ip), vehicle: Klucel (hydroxypropylcellulose) (HPC)
[10] = dose: 12.5 mg/kg/injection, schedule: Q01DX009 (ip), vehicle: distilled water + Tween-80
[11] = dose: 25.0 mg/kg/injection, schedule: Q01DX009 (ip), vehicle: distilled water + Tween-80
[12] = dose: 50.0 mg/kg/injection, schedule: Q01DX009 (ip), vehicle: distilled water + Tween-80
[13] = dose: 100.0 mg/kg/injection, schedule: Q01DX009 (ip), vehicle: distilled water + Tween-80
[14] = dose: 200.0 mg/kg/injection, schedule: Q01DX009 (ip), vehicle: distilled water + Tween-80

Measured: T/C

Cc1c(C)n2c(=O)n(-c3ccccc3)c(=O)n2c1=O
inactive: dose: 60.0 mg/kg/injection, schedule: Q01DX005 (ip), vehicle: Klucel (hydroxypropylcellulose) (HPC) 99 % of control | dose: 120.0 mg/kg/injection, schedule: Q01DX005 (ip), vehicle: Klucel (hydroxypropylcellulose) (HPC) 99 % of control | dose: 240.0 mg/kg/injection, schedule: Q01DX005 (ip), vehicle: Klucel (hydroxypropylcellulose) (HPC) 99 % of control

O=c1[nH]c(=O)n(Cl)c(=O)n1Cl
inactive: [1] 116 % of control | [2] 99 % of control

CC(C)(C)C(=O)CP(=O)(O)O
inactive: [3] 95 % of control and 100 % of control | [4] 104 % of control and 97 % of control | [5] 95 % of control and 101 % of control

Cc1ccc(NC(=O)Oc2ccc(F)cc2Cl)c([N+](=O)[O-])c1
inactive: [6] 112 % of control | [7] 118 % of control

CCC[CH2][Sn]([CH2]CCC)([S]CC(=O)OC)[S]CC(=O)OC
inactive: dose: 1.56 mg/kg/injection, schedule: Q01DX001 (ip), vehicle: Klucel (hydroxypropylcellulose) (HPC) 110 % of control | dose: 3.12 mg/kg/injection, schedule: Q01DX001 (ip), vehicle: Klucel (hydroxypropylcellulose) (HPC) 111 % of control | dose: 6.25 mg/kg/injection, schedule: Q01DX001 (ip), vehicle: Klucel (hydroxypropylcellulose) (HPC) 96 % of control | dose: 12.5 mg/kg/injection, schedule: Q01DX001 (ip), vehicle: Klucel (hydroxypropylcellulose) (HPC) 106 % of control | dose: 25.0 mg/kg/injection, schedule: Q01DX001 (ip), vehicle: Klucel (hydroxypropylcellulose) (HPC) 115 % of control

O=S(=O)(O)C(Nc1ccc(Cl)cc1)c1ccccc1 (stereo not given)
inactive: [6] 100 % of control | [7] 105 % of control | [8] 114 % of control

CCCCCCCCCCCCCCCCCC(=O)[O][Hg][c]1ccccc1
inactive: dose: 2.5 mg/kg/injection, schedule: Q04DX003 (ip), vehicle: Klucel (hydroxypropylcellulose) (HPC) 100 % of control | dose: 5.0 mg/kg/injection, schedule: Q04DX003 (ip), vehicle: Klucel (hydroxypropylcellulose) (HPC) 100 % of control | dose: 10.0 mg/kg/injection, schedule: Q04DX003 (ip), vehicle: Klucel (hydroxypropylcellulose) (HPC) 100 % of control

CCOC(=O)C(CC)Oc1cccc2c1oc1ccccc12 (stereo not given)
inactive: dose: 25.0 mg/kg/injection, schedule: Q01DX009 (ip), vehicle: Klucel (hydroxypropylcellulose) (HPC) 103 % of control | [1] 106 % of control | [2] 101 % of control | [9] 109 % of control

CNC(=O)OCc1nn(-c2ccccc2)c(C)c1COC(=O)NC
inactive: [10] 97 % of control | [11] 97 % of control | [12] 97 % of control | [13] 92 % of control | [14] 92 % of control

CCOC(=O)Cc1cc2c(cc1C)CNC(=O)C2
inactive: dose: 6.25 mg/kg/injection, schedule: Q01DX009 (ip), vehicle: distilled water + Tween-80 94 % of control | [10] 100 % of control | [11] 100 % of control | [12] 94 % of control | [13] 94 % of control | [14] 90 % of control | dose: 400.0 mg/kg/injection, schedule: Q01DX009 (ip), vehicle: distilled water + Tween-80 102 % of control

COc1nc2[nH]ccc2c(=O)n1C
inactive: dose: 60.0 mg/kg/injection, schedule: Q01DX005 (ip), vehicle: saline with Tween-80 101 % of control | dose: 120.0 mg/kg/injection, schedule: Q01DX005 (ip), vehicle: saline with Tween-80 92 % of control | dose: 240.0 mg/kg/injection, schedule: Q01DX005 (ip), vehicle: saline with Tween-80 89 % of control

O=S(=O)(O)C(O)c1cccc(Cl)c1 (stereo not given)
inactive: dose: 100.0 mg/kg/injection, schedule: Q04DX003 (ip), vehicle: saline 100 % of control | dose: 200.0 mg/kg/injection, schedule: Q04DX003 (ip), vehicle: saline 110 % of control | dose: 400.0 mg/kg/injection, schedule: Q04DX003 (ip), vehicle: saline 103 % of control

CC(=O)Nc1ccccc1/C=C/c1ccccn1
inactive: dose: 100.0 mg/kg/injection, schedule: Q01DX001 (ip), vehicle: saline with Tween-80 106 % of control | dose: 200.0 mg/kg/injection, schedule: Q01DX001 (ip), vehicle: saline with Tween-80 106 % of control | dose: 400.0 mg/kg/injection, schedule: Q01DX001 (ip), vehicle: saline with Tween-80 95 % of control

Oc1ccc(C(c2ccc(O)cc2)C(c2ccc(O)cc2)c2ccc(O)cc2)cc1
inactive: [6] 107 % of control | [7] 100 % of control | [8] 113 % of control

NCC(O)c1cccc(O)c1 (stereo not given)
inactive: dose: 6.25 mg/kg/injection, schedule: Q01DX009 (ip), vehicle: saline 101 % of control and 92 % of control | dose: 12.5 mg/kg/injection, schedule: Q01DX009 (ip), vehicle: saline 101 % of control and 95 % of control | dose: 25.0 mg/kg/injection, schedule: Q01DX009 (ip), vehicle: saline 100 % of control

COc1cc2c(c(OC)c1OC)-c1ccc(=O)c(OC)cc1C=CC2
inactive: dose: 2.5 mg/kg/injection, schedule: Q01DX009 (ip), vehicle: Klucel (hydroxypropylcellulose) (HPC) 100 % of control | dose: 5.0 mg/kg/injection, schedule: Q01DX009 (ip), vehicle: Klucel (hydroxypropylcellulose) (HPC) 106 % of control | dose: 10.0 mg/kg/injection, schedule: Q01DX009 (ip), vehicle: Klucel (hydroxypropylcellulose) (HPC) 104 % of control and 108 % of control | dose: 20.0 mg/kg/injection, schedule: Q01DX009 (ip), vehicle: Klucel (hydroxypropylcellulose) (HPC) 103 % of control and 109 % of control | dose: 40.0 mg/kg/injection, schedule: Q01DX009 (ip), vehicle: Klucel (hydroxypropylcellulose) (HPC) 106 % of control and 123 % of control | dose: 80.0 mg/kg/injection, schedule: Q01DX009 (ip), vehicle: Klucel (hydroxypropylcellulose) (HPC) 115 % of control

C[N+]1=C(/C=C/Nc2cc3c4ccccc4ccc3c3ccccc23)C(C)(C)c2ccccc21
inactive: [1] 117 % of control | [2] 119 % of control | [9] 117 % of control

CCCCCCCCCCCCCCOC(=O)c1ccc(O)cc1
inactive: [1] 94 % of control | [2] 101 % of control | [9] 89 % of control

O=C1OCCOCCOCCOCCOCCOC(=O)c2cccc1n2
inactive: dose: 100.0 mg/kg/injection, schedule: Q04DX003 (ip), vehicle: Klucel (hydroxypropylcellulose) (HPC) 96 % of control | dose: 200.0 mg/kg/injection, schedule: Q04DX003 (ip), vehicle: Klucel (hydroxypropylcellulose) (HPC) 103 % of control | dose: 400.0 mg/kg/injection, schedule: Q04DX003 (ip), vehicle: Klucel (hydroxypropylcellulose) (HPC) 101 % of control

O=C(c1ncccc1O)N1CCCCC1
inactive: [10] 88 % of control | [12] 92 % of control | [13] 99 % of control | [14] 100 % of control

C/C(=N\N=C(\N)N1CCOCC1)c1ccc2c(c1)Cc1c(/C(C)=N/N=C(\N)N3CCOCC3)cccc1-2
inactive: dose: 12.5 mg/kg/injection, schedule: Q04DX002 (ip), vehicle: saline with Tween-80 102 % of control | dose: 25.0 mg/kg/injection, schedule: Q04DX002 (ip), vehicle: saline with Tween-80 97 % of control | dose: 50.0 mg/kg/injection, schedule: Q04DX002 (ip), vehicle: saline with Tween-80 103 % of control

O=S(=O)(O)CCCCS(=O)(=O)O
inactive: [3] 99 % of control | [4] 108 % of control | [5] 110 % of control

COC1=CC(=O)C(c2cc(O)c(OC)cc2O)=CC1=O
inactive: dose: 12.0 mg/kg/injection, schedule: Q01DX005 (ip), vehicle: saline with Tween-80 114 % of control | dose: 25.0 mg/kg/injection, schedule: Q01DX005 (ip), vehicle: saline with Tween-80 108 % of control | dose: 50.0 mg/kg/injection, schedule: Q01DX005 (ip), vehicle: saline with Tween-80 99 % of control
